Where only a bound is given, the exact number is not on record here.

This is an account of results in article PMC4669722, “Antitumour potential of BPT: a dual inhibitor of cdk4 and tubulin polymerization” (Cell Death & Disease, 2015).

The subject of assay [1] is Calu-1 (NSCLC; p53 null, pRb+). Put plainly: Cell proliferation (MTT) assay, Calu-1. The format is cell-based, human. The method, then:
All 10 human cancer cell lines were maintained at 37 °C in 5% CO2 in RPMI-1640 medium, supplemented with 10% foetal calf serum and 100 μg/ml normocin. The 10 cancer cell lines used for screening were all obtained from ATCC (Manassas, VA, USA); they were the NSCLC (a form of cancer that is resistant to chemotherapy) lines: NCI-H460 (pRb^+, p53^+), A549 (pRb^+, p53^+), Calu-1 (pRb^+, p53-null), NCI-H1299 (pRb^+, p53-null), NCI-H358 (pRb-null, p53-null); the colon cancer line LS174T (pRb^+, p53^+); the prostate cancer line PC-3 (pRb^+, p53-null); the pancreatic cancer line MiaPaca (pRb^+, p53-mutant). The genotypes within brackets indicate the status of the tumour suppressor proteins pRb and p53. The mouse embryonic normal hepatic cell line (BNL CL2) and its SV40 large T-antigen-transformed counterpart cell line (BNL SV A.8) were also purchased from ATCC. The large T-antigen inactivates the tumour suppressor proteins p53 and pRb. The detailed procedure of cell proliferation (MTT) assay and IC50 determination was described previously.[32]

For another assay, the target named is EGFR (Homo sapiens, UniProt P00533). Put plainly: Kinase profiling (Millipore), EGFR. The format is biochemical. The method, then: (§1) The in vitro kinase assays for testing against Cdk4-cyclin D1, Cdk2-cyclin A, Cdk1-cyclin B1 and Cdk9-cyclin T1 were performed in-house. The methodology and results have been reported previously.[20], [30], [31], [32], [45] The kinase profiling for 58 representative kinases was carrried out commercially at Millipore Bioscience Division, Livingston, UK.

The next assay concerns NCI-H460 tumours. In words: NCI-H460 xenograft efficacy in SCID mice. The format is in vivo. As to conditions: 100 mpk intraperitoneal, 9 days. The method, then: A group of 65 SCID (SCID strain-CBySmn.CB17-Prkdc^scid/J; The Jackson Laboratory; Stock no. 001803) female mice weighing 15–24 g and 6–8 weeks old were used. Human non-small-cell lung carcinoma, NCI-H460 (ATCC; cat. no. HTB-177) cells grown in RPMI-1640 medium supplemented with 10% FBS (Sigma-Aldrich). The cultured cells were injected subcutaneously into the dorsal side of SCID mice at a tune of 5.3 × 10^6 cells in 0.2 ml of suspension. When the tumour growth reached about 4–6 mm in diameter (about 6 days), the animals were randomly divided into eight groups, each containing 6 or 7 mice. The treatments were continued for 9 consecutive days intraperitoneally. Flavopiridol (2.5 mpk) was used as a positive control in this study. Tumour size was recorded at 2–5 day intervals. Tumour weight (mg) was estimated according to the formula for a prolate ellipsoid: (length (mm) × width (mm)^2) × 0.5) assuming specific gravity to be one and π to be 3. Tumour growth in compound treated animals is calculated as T/C (treated/control) × 100% and growth inhibition percent (% GI) was (100−% T/C).[48], [49], [50]

The next assay concerns MIAPaCa cells. In words: Western blot of cell cycle proteins in mutant p53 cells. The format is cell-based, human. As to conditions: data not shown. The method, then:
A549, LS174T and MiaPaCa cells were seeded in 25 cm^2 tissue culture flasks in the complete growth medium. […] Cells were harvested by trypsinization, washed in ice-cold PBS and then lysed in buffer (Sigma-Aldrich; cat. no. C-2978) containing protease inhibitor cocktail (Sigma-Aldrich; cat. no. P8340). The lysates were centrifuged at 14 000 r.p.m. (revolutions per minute) for 10 min at 4 °C and the total protein concentrations were estimated in the clear supernatants using the Bradford method. Equal amounts of protein (40 μg) were loaded and electrophoresed on 10% SDS-polyacrylamide gels and blotted on Immobilon-P Transfer Membrane (Millipore; cat. no.IPVH20200). The blots were probed with respective primary antibodies (at 4 °C, overnight) at the following dilutions: cdc2 (New England Biolabs, Hitchin, UK; cat. no. 9110) at 1 : 1000 to detect Cdk1; cyclin B1 (CRUK, London, UK; cat. no. V152) at 1 : 1500 dilution to detect cyclin B1; Pab 1801 (Santa Cruz Biotechnology, Heidelberg, Germany; cat. no. sc-98) at 1 : 500 dilution to detect p53; N-20 (Santa Cruz Biotechnology; cat. no. sc-469) at 1 : 500 dilution to detect p21; C-19 (Santa Cruz Biotechnology; cat. no. sc-528) at 1 : 250 dilution to detect p27; AC-40 (Sigma-Aldrich; cat. no. A4700) at 1 : 2000 dilution to detect actin. […]
A general note: Immunoblotting shows a protein as a band on a membrane.

Another assay deals with A549 cells. Put plainly: Flow cytometric cell cycle analysis, A549. As to conditions: 24 h. The format is cell-based, human. The method, then: The untreated (control) and treated (with test compounds) cells were harvested by trypsinization, washed once with PBS and then fixed in 70% chilled (−20 °C) ethanol for minimum 1 h. After the fixation step, cells were centrifuged for 5 min at 3000 × g at room temperature, and the pellet was suspended in PBS containing 50 μg/ml propidium iodide (Sigma-Aldrich, Dorset, UK; cat. no. P-4170) and 0.5 mg/ml DNase-free ribonuclease (Sigma-Aldrich; cat. no. R-5503). The cells were stained for 1 h in the dark at 4 °C. Cell cycle analysis was performed on the Beckman Coulter (Epics Altra) fluorescence-activated cell sorter (Beckman Coulter UK Ltd, Buckinghamshire, UK). To gate all the events that represent single cells, and not cell doublets or cell clumps, the following analyses were performed on the samples. Cytograms of propidium iodide fluorescence peak signal versus integrated fluorescence or the linear signal were plotted. All data points on the straight line were isolated in a single gate and the gated data was further used for plotting a histogram that represents a complete cell cycle. The total number of events was not allowed to exceed 200 events per s. Data acquisition was stopped after a minimum of 10 000 events had been collected.
For orientation: In flow cytometry, cells or beads pass a laser one at a time.

The next assay deals with MAPK1 (Homo sapiens, UniProt P27361). Put plainly: Kinase profiling (Millipore), MAPK1. The format is biochemical. The method, then:
as §1

The target in another assay is Cdk5-p35 (Homo sapiens, UniProt Q00535). In words: Kinase profiling (Millipore), Cdk5-p35. The format is biochemical. The method, then: as §1
Sequence of Cdk5-p35 (Q00535 whole entry): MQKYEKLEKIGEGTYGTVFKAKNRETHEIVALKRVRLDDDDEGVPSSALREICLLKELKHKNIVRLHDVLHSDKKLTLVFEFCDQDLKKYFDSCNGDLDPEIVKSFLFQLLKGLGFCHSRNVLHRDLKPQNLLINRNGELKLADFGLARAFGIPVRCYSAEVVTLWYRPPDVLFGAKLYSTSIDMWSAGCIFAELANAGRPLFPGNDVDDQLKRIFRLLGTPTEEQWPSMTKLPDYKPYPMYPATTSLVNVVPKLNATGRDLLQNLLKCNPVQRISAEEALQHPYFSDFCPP
Sequence of Cdk5-p35 (Q15078 whole entry partner): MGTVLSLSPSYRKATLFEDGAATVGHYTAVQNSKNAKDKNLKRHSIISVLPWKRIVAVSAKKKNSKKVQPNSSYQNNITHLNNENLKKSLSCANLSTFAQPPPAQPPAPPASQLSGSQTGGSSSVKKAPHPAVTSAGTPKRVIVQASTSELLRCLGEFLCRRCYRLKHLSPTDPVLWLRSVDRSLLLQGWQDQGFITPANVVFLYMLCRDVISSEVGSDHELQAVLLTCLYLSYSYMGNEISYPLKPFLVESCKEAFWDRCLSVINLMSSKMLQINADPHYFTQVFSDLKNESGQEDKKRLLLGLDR

Sequence of MAPK1 (P27361 2-379 limits assumed): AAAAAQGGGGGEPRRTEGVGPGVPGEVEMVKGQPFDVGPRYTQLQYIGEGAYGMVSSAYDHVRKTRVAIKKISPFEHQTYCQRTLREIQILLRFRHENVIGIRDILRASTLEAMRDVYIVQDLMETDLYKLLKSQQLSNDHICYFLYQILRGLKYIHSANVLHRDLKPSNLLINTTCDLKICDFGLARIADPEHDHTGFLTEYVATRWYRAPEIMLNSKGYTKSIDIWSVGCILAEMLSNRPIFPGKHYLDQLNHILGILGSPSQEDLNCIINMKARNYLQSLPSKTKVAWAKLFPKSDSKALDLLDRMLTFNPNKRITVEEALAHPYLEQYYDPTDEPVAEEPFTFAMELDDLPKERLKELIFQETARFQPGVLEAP
Sequence of EGFR (P00533 25-1210): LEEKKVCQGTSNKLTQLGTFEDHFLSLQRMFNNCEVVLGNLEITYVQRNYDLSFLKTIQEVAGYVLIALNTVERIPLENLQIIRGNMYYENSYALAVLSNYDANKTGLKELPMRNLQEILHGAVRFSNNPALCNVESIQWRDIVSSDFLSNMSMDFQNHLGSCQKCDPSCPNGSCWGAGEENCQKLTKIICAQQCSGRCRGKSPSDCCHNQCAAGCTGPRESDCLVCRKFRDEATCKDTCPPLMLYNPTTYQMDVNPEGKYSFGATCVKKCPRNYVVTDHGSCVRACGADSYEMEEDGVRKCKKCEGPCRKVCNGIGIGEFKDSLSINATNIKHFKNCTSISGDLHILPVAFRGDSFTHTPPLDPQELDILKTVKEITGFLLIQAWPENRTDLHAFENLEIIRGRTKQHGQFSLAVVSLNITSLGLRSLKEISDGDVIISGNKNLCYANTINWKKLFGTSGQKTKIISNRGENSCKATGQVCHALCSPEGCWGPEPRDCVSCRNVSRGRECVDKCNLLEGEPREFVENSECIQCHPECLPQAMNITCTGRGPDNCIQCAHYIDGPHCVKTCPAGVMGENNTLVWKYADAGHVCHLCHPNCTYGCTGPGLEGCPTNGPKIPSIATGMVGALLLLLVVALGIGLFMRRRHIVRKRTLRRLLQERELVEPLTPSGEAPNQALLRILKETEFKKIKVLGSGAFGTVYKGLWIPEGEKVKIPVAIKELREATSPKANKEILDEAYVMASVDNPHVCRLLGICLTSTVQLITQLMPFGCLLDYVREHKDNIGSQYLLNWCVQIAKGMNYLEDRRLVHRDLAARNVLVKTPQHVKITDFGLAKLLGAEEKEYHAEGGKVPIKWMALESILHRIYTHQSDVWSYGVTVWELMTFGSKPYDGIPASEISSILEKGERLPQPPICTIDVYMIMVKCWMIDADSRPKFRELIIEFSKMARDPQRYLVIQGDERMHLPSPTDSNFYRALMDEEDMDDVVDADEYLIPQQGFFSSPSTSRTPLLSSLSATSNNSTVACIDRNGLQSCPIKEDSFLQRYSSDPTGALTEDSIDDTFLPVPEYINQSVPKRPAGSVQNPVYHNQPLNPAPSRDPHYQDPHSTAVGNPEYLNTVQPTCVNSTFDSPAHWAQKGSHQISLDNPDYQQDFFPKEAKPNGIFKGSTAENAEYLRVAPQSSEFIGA

What is called IC50 is the point on the concentration scale where inhibition reaches its midpoint. Regarding `O=C(c1ccccc1-c1ccccc1)N1CCc2c([nH]c3ccccc23)C1` [BPT, 2-(biphenyl-2-carbonyl)-2,3,4,9-tetrahydro-1H-pyrido[3,4-b]indole], the IC50 in assay [1] (Homo sapiens, Calu-1, 48 h, MTT, read-out: IC50 cell growth inhibition, Calu-1) is 2.8 µM; against EGFR, above 10 µM; on MAPK1, above 10 µM; at Cdk5-p35, above 10 µM. In assay [1] (relative to other cell lines), the “resistance of Calu-1 cells to growth inhibition” value is “two- to three-fold”. In addition, in the assay on NCI-H460 tumours, the antitumour efficacy result is “high efficacy”. For the same molecule, in the assay on MIAPaCa cells, the “cyclin B1 and Cdk1 levels” value is listed as “elevated”. Besides, the “p53, p21 and p27 levels” value in the assay with MIAPaCa cells is “remained unchanged”. In addition, the “cells in G2/M” value in the assay with A549 cells (A549, IC50 concentration) is 82%; in the assay on A549 cells (A549, IC70 concentration), 59%. For the same molecule, the “cells in G0/G1” value in the assay on A549 cells (A549, IC70 concentration) came to 15%. For the same molecule, the “cells in Sub G1 (apoptotic)” value with A549 cells (A549, IC70 concentration) is recorded as 13%.
